pIC50: −log10 of the molar value.
Legend:
[1] = dosage of 30 mg/kg (Lin et al. 2004); cited from earlier work
HLE cells = test: HLE cell proliferation assay (cell count, BrdU; HCS); assay type: cell-based, human; conditions: 0-1.25 mM, 48 h
Procedure: FIG. 21. DBZIM inhibited cell proliferation and disrupted cell cycle in HLE cells (A). DBZIM inhibited HCC cell proliferation. HLE cells were seeded at a density of 5000 cells/well in 96-well plate, and cultured for 18-24 h in 10% […] DMEM before the addition of various compounds (0-1.25 mM) in 10% FBS DMEM for 48 h of proliferation before assaying. Cell count was calculated based on Hoechst dye staining and BrdU incorporation was based on the total fluorescence intensity of antibody staining. (B). DBZIM arrested HCC cells at G0/G1 phase. HLE cells were incubated with DBZIM (0, 1, 3 mM) for 24 hr before fixation and DAPI staining for DNA content (2N vs. 4N) determination.
HLE cells were grown, treated by compounds in 6 replicates for 48 hr in a 96-well plate. Cells were then fixed by using 4% paraformaldehyde and stained by DAPI and BrdU antibody using Hitkit (Thermo Scientific, IL, USA). Cells were imaged and analyzed on ArrayScan VTI HCS reader (Thermal Scientific, PA, USA). Cell numbers were counted based on nuclear staining and BrdU incorporation was determined and expressed as percentage of positively stained cells.
The effect of DBZIM on the HCC cell proliferation and cell cycle was characterized on a high-content screening (HCS) platform. Under each concentration, at lease 1000 cells were analyzed. […]

AP-1 = test: Western blot of AP-1 complex members in nuclear extracts; assay type: cell-based, human; conditions: 24 hr
Procedure: FIG. 28. DBZIM induced up-regulation of AP-1 expression in HepG2 cells. HepG2 cells were treated with DBZIM for 24 hr. Cytoplasmic and nuclear proteins were fractionated using a kit from Pierce. 15 μg of nuclear proteins were resolved in 4-12% gradient PAGE-SDS gel. The target proteins were recognized by their respective antibodies, and visualized by the ECL method. The membrane was stripped and re-probed for Tata binding protein TBP as loading control.
Protein extracts were prepared by lysing cell pellet in RIPA buffer (Pierce, Ill., USA) for total protein extract, or in NE-PER reagent from Pierce (Pierce, Ill., USA) for nuclear and cytoplasmic fractions, or in a Kit from BioVision (CA, USA) for mitochondria and cytosol fractions. Protein content was quantified using BCA Kit (Pierce, Ill., USA). […] The membrane was then probed with primary antibodies against Bcl-XL, Bak, Bcl-2α, Bax (Lab Vision Corp., CA, USA), survivin, xIAP, cIAP (R&D systems Inc., MN, USA), c-Jun, c-Fos, JunB, JunD, Fra-1, Fra-2 (Santa Cruz Biotechnology, CA, USA) respectively, and detected by horseradish peroxidase-conjugated secondary antibody (Santa Cruz Biotechnology, CA, USA). Protein bands were recorded on X-ray film by reacting with ECL chemiluminescence reagents (Amersham Biosciences, NJ, USA). […]

C6 = test: Proliferation assay (MTS), glioma C6; assay type: cell-based; conditions: Rattus norvegicus, 48 h; C6, determined at day 2
Procedure: (§1) FIG. 30. DBZIM inhibited cell proliferation in glioma cell line C6 (A) and U87 MG (C) and induced caspase 3/7 activity in C6 (B) and U87 MG (D). C6 or U87 cells were incubated with DBZIM of various concentrations for 48 hr for proliferation assay and 6 hr for caspase 3/7 activation assay. Proliferation was measured using MTS kit from Promega and expressed as relative cell proliferation with control group was normalized to 1. Caspase 3/7 activity was quantified using a kit from Promega and also expressed as relative caspase 3/7 activity of treated groups over control group.
Proliferation of Glioma cell lines: U87 MG and C6 under the treatment of DBZIM was examined using 3-(4,5-dimethylthiazol-2-yl)-5-(3-carboxymethoxyphenyl)-2-(4-sulfophenyl)-2H-tetrazolium (MTS) based proliferation assay kit (Promega, Wis., USA). MTS reagent was added to the control and treated cells (after 48 hr) directly and the absorbance signal was read at 490 nm using a Tecan Safire II plate reader.

U87 MG = test: Caspase 3/7 activity in U87 MG; assay type: cell-based, human; conditions: 2 mM, 6 hr
Procedure: as §1
Capspase 3/7 activity and lactate dehydrogenase (LDH) release were measured by Fluorometric assays (Promega Corp., WI, USA). The HCC cells were cultured in 96-well plate and treated with DBZIM of various concentrations for 6 hr before assays. For caspase 3/7 assay, medium was removed and substrate buffer was added to lyse the cell and react with caspase 3/7 to give rise to fluorescence signal which was read at Ex=485 nm and Em=530 nm on a Tecan Safire II plate reader after 1 hr incubation. The caspase 3/7 activity of sample cells with the compound treatment was expressed as relative fold change after normalizing to the control cells. The LDH assay (indicative of membrane integrity) was performed using a Kit from Promega Corp according to manufactor's instructions.

caspase-3/9 and PARP = test: Western blot of caspase-3, caspase-9 and PARP in MCF-7 and AGS; assay type: cell-based, human; conditions: 50 μM
Procedure: FIG. 31. DBZIM induces cleavage of caspase-3, caspase-9 and PARP as indication of apoptosis. Western blot analysis for the effect of DBZIM, on the cleavage of caspase-3, Caspase-9 and PARP A) in p53 wild type gastric cancer cell AGS and B) in p53 wild type breast cancer cell line MCF-7. Western blot analysis conducted on cells after 72 h exposure to 50 μM of DBZIM.
To determine whether cells undergo apoptosis, Western blotting was first performed for a caspase-3/9 and PARP activation with proteins from MCF-7 and AGS treated with DBZIM. […] Similarly we observed a DBZIM-induced elevation of caspase 3/7 in C6 (by 3 folds at 2.0 mM) and in U87 MG (by 17 folds at 2 mM) (FIGS. 30B and 30D).

## (−)-Epigallocatechin gallate [EGCG, reference compound]
[1]
  half life in rat blood: ~1.2 h

## [Br-].c1ccc(Cn2cc[n+](Cc3ccccc3)c2)cc1 [DBZIM, 1,3-bisbenzylimidazolium bromide]
HLE cells
  HLE cell proliferation (total cell number, BrdU positive cells): inhibited the HLE cell proliferation
AP-1
  AP-1 complex members (C-Jun, Jun B, Jun D, Fra-1; not Fra-2): significantly induced
C6
  pIC50: 3.00
U87 MG
  elevation of caspase 3/7: 17 folds
caspase-3/9 and PARP
  caspase-3/9 and PARP activation: time-dependently increased caspase-3/9 and PARP activity
